From patent US20260015350A1, “AZAQUINAZOLINE PAN-KRAS INHIBITORS” (Mirati Therapeutics, Inc., priority 2022, published 2026)

Experiments:
[1] = target: T1, KRas^G12D (Homo sapiens, UniProt P01116, G12D); assay: KRas binding assay (TR-FRET tracer displacement), KRas G12D
T1 construct: Biotinylated KRas (corresponding to amino acids 1-169, produced at Accelegan Inc.); biotin (biotinylated); purchased Accelegan Inc

[2] = target: T2, KRas^G12R (Homo sapiens, UniProt P01116, G12R); assay: KRas binding assay (TR-FRET tracer displacement), KRas G12R
T2 construct: Biotinylated KRas (corresponding to amino acids 1-169, produced at Accelegan Inc.); biotin (biotinylated); purchased Accelegan Inc
T2 sequence (P01116 1-169 isoform P01116-2 G12R): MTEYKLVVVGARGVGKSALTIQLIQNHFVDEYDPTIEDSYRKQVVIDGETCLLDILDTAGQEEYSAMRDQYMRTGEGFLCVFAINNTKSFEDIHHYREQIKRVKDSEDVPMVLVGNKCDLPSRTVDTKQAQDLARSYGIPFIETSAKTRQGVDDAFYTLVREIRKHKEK

[3] = target: T3, KRas^G12V (Homo sapiens, UniProt P01116, G12V); assay: KRas binding assay (TR-FRET tracer displacement), KRas G12V
T3 construct: Biotinylated KRas (corresponding to amino acids 1-169, produced at Accelegan Inc.); biotin (biotinylated); purchased Accelegan Inc
T3 sequence (P01116 1-169 isoform P01116-2 G12V): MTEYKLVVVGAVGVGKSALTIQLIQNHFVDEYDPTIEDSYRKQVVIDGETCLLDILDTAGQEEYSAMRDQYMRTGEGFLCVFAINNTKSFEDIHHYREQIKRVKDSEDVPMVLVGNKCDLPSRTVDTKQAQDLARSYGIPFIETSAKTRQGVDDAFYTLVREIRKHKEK

[4] = test system: KRas-mediated phosphorylation of ERK in AsPC-1 cells; assay: Inhibition of KRas-mediated phosphorylation of ERK (Cisbio HTRF pERK), AsPC-1 cells; type: cell-based; conditions: Homo sapiens; for IC50: ASPC1, AsPC-1 cells, HTRF pERK
In short: (§1)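 Following a 3-hr exposure of cells to serially diluted compound (from 10 uM, 3-fold, 10 doses), cold lysis for 40 mins preceded a 2-hr room-temperature HTRF immunoassay for phosphorylated ERK.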

[5] = test system: KRas-mediated phosphorylation of ERK in H727 cells; assay: Inhibition of KRas-mediated phosphorylation of ERK (Cisbio HTRF pERK), H727 cells; type: cell-based; conditions: Homo sapiens; for IC50: NCI-H727, H727 cells, HTRF pERK
In short: as §1

T1 sequence (P01116 1-169 isoform P01116-2 G12D): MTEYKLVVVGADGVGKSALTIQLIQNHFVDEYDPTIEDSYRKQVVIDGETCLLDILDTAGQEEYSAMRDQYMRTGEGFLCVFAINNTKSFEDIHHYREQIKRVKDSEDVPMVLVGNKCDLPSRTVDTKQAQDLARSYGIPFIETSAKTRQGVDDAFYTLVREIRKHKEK

IC50 [1]	IC50 [2]	IC50 [3]	IC50 [4]	IC50 [5]	Structure (SMILES)	inhibition at 0.1 µM ([4]; ASPC1, 3 h, single point, 100 nM compound, 3 hrs, AsPC-1 cells)	inhibition at 0.1 µM ([5]; NCI-H727, 3 h, single point, 100 nM compound, 3 hrs, H727 cells)
32 nM	< 2 nM	3 nM	9490 nM	2040 nM	CCc1c(F)ccc2cc(O)cc(-c3ncc4c(NCc5cn(C(=O)N(C)C)nc5NC(C)=O)nc(OC[C@@]56CCCN5C[C@H](F)C6)nc4c3F)c12 [Example 675, 3-acetamido-4-(((7-(8-ethyl-7-fluoro-3-hydroxynaphthalen-1-yl)-8-fluoro-2-(((2R,7aS)-2-fluorohexahydro-1H-pyrrolizin-7a-yl)methoxy)pyrido[4,3-d]pyrimidin-4-yl)amino)methyl)-N,N-dimethyl-1H-pyrazole-1-carboxamide]	–	–
13 nM	< 2 nM	< 2 nM	–	4580 nM	CCc1c(F)ccc2cc(O)cc(-c3ncc4c(NCc5cc(C(=O)N(C)C)nn5C5CCC5O)nc(OC[C@@]56CCCN5C[C@H](F)C6)nc4c3F)c12 (stereo partly drawn) [Example 677, 5-(((7-(8-ethyl-7-fluoro-3-hydroxynaphthalen-1-yl)-8-fluoro-2-(((2R,7aS)-2-fluorotetrahydro-1H-pyrrolizin-7a(5H)-yl)methoxy)pyrido[4,3-d]pyrimidin-4-yl)amino)methyl)-1-(2-hydroxycyclobutyl)-N,N-dimethyl-1H-pyrazole-3-carboxamide]	-8%	2%

Second part, the molecule before the results:

Structure (SMILES)	IC50 [1]	IC50 [2]	IC50 [3]	IC50 [4]	IC50 [5]	inhibition at 0.1 µM ([4]; ASPC1, 3 h, single point, 100 nM compound, 3 hrs, AsPC-1 cells)	inhibition at 0.1 µM ([5]; NCI-H727, 3 h, single point, 100 nM compound, 3 hrs, H727 cells)
CCc1c(F)ccc2cc(O)cc(-c3ncc4c(N5CCCn6nc(S(N)(=O)=O)cc6C5)nc(OC[C@@]56CCCN5C[C@H](F)C6)nc4c3F)c12 [Example 661, 5-(7-(8-ethyl-7-fluoro-3-hydroxynaphthalen-1-yl)-8-fluoro-2-(((2R,7aS)-2-fluorohexahydro-1H-pyrrolizin-7a-yl)methoxy)pyrido[4,3-d]pyrimidin-4-yl)-5,6,7,8-tetrahydro-4H-pyrazolo[1,5-a][1,4]diazepine-2-sulfonamide]	680 nM	699 nM	1740 nM	> 10000 nM	> 10000 nM	–	–
CCc1c(F)ccc2cc(O)cc(-c3ncc4c(N5C[C@@H]6[C@@H](CS(N)(=O)=O)NC(=O)[C@@H]6C5)nc(OC[C@@]56CCCN5C[C@H](F)C6)nc4c3F)c12 [Example 665, 1-((1S,3aS,6aR)-5-(7-(8-ethyl-7-fluoro-3-hydroxynaphthalen-1-yl)-8-fluoro-2-(((2R,7aS)-2-fluorotetrahydro-1H-pyrrolizin-7a(5H)-yl)methoxy)pyrido[4,3-d]pyrimidin-4-yl)-3-oxooctahydropyrrolo[3,4-c]pyrrol-1-yl)methanesulfonamide]	1980 nM	1250 nM	966 nM	1240 nM	3120 nM	–	–
CCc1c(F)ccc2cc(O)cc(-c3ncc4c(N5CCOCC6(CCS(=O)(=O)CC6)C5)nc(OC[C@@]56CCCN5C[C@H](F)C6)nc4c3F)c12 [Example 667, 11-(7-(8-ethyl-7-fluoro-3-hydroxynaphthalen-1-yl)-8-fluoro-2-(((2R,7aS)-2-fluorohexahydro-1H-pyrrolizin-7a-yl)methoxy)pyrido[4,3-d]pyrimidin-4-yl)-8-oxa-3-thia-11-azaspiro[5.6]dodecane 3,3-dioxide]	445 nM	323 nM	203 nM	6150 nM	6050 nM	–	–
CCc1c(F)ccc2cc(O)cc(-c3ncc4c(NCc5cc(C(=O)N(C)C)n(CCC#N)n5)nc(OC[C@@]56CCCN5C[C@H](F)C6)nc4c3F)c12 [Example 668, 1-(2-cyanoethyl)-3-(((7-(8-ethyl-7-fluoro-3-hydroxynaphthalen-1-yl)-8-fluoro-2-(((2R,7aS)-2-fluorohexahydro-1H-pyrrolizin-7a-yl)methoxy)pyrido[4,3-d]pyrimidin-4-yl)amino)methyl)-N,N-dimethyl-1H-pyrazole-5-carboxamide]	34 nM	16 nM	12 nM	> 10000 nM	> 10000 nM	–	–
